Reference: ChEMBL document CHEMBL5291721, “A preclinical secondary pharmacology resource illuminates target-adverse drug reaction associations of marketed drugs” (Nat Commun, 2023)

Experiments:
Vasopressin V2 receptor = Vasopressin V2 receptor (Homo sapiens, UniProt P30518)
[1] = target: T1, Muscarinic acetylcholine receptor M2 (Homo sapiens, UniProt P08172); type: functional, cell-based
T1 sequence (P08172 whole entry): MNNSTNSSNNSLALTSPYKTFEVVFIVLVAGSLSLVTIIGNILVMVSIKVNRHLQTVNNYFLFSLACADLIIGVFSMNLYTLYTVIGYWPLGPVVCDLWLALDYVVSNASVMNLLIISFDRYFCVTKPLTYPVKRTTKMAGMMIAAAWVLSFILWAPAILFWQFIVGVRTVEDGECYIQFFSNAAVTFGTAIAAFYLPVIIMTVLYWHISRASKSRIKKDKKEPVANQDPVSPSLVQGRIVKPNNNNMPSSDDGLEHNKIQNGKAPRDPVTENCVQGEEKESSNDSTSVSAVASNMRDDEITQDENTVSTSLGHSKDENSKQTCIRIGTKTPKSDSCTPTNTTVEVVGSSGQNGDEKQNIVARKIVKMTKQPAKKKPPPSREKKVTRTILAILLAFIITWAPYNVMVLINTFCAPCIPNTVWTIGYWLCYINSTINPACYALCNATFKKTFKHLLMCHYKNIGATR

[2] = target: T2, Alpha-1A adrenergic receptor (Homo sapiens, UniProt P35348); type: functional, cell-based
T2 sequence (P35348 whole entry): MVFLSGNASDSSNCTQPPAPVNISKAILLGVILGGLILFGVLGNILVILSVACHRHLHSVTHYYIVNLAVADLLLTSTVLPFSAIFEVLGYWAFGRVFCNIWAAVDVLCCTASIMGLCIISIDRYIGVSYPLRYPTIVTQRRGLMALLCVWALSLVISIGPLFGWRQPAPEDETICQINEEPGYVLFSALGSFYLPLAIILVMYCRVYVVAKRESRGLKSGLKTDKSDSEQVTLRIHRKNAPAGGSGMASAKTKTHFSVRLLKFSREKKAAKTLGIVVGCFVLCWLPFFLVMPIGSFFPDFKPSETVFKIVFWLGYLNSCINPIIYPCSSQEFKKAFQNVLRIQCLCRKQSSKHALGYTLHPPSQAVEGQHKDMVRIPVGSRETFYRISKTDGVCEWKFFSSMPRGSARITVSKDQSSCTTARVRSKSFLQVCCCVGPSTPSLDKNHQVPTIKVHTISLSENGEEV

[3] = target: Gamma-aminobutyric acid receptor subunit alpha-1 (Rattus norvegicus, UniProt P62813); type: functional
Sequence of Gamma-aminobutyric acid receptor subunit alpha-1 (P62813 whole entry): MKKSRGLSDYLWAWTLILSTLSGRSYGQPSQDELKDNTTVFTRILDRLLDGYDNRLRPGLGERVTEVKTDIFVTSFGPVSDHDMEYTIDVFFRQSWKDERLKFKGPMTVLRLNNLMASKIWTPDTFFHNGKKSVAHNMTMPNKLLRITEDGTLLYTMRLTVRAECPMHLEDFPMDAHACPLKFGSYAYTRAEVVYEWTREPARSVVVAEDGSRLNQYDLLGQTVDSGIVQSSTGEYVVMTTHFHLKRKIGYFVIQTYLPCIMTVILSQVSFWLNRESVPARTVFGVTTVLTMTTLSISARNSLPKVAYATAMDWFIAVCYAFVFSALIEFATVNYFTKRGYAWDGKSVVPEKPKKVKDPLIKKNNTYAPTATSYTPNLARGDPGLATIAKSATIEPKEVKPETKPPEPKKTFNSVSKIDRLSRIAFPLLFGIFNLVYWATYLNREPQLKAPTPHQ

[4] = target: Kappa-type opioid receptor (Homo sapiens, UniProt P41145)
Sequence of Kappa-type opioid receptor (P41145 whole entry): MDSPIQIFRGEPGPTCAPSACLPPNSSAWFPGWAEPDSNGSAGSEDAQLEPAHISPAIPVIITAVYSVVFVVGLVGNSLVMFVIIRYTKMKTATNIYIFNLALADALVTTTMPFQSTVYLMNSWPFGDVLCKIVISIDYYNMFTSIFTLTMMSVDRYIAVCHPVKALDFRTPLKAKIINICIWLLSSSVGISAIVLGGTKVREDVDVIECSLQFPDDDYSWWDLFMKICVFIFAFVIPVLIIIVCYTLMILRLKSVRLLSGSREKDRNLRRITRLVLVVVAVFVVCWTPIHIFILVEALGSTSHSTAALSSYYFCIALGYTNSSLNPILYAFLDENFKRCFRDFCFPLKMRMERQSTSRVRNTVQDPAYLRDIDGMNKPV

Histamine H1 receptor = Histamine H1 receptor (Homo sapiens, UniProt P35367)
Sequence of Histamine H1 receptor (P35367 whole entry): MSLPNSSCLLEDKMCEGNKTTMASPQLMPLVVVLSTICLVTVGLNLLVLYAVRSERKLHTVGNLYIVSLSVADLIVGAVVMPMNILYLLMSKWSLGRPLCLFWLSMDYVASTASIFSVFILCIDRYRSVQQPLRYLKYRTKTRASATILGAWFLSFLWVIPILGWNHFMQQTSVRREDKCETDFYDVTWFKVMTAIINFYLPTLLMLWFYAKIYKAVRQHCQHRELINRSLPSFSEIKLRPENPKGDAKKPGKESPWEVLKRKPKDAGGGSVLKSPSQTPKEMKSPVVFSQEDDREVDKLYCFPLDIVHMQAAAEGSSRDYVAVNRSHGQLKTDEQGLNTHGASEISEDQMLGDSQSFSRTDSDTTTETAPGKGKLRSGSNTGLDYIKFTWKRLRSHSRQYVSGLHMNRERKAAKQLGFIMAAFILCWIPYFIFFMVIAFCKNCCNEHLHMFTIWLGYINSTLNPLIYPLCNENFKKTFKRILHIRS

[5] = target: T3, Amine oxidase [flavin-containing] A (Homo sapiens, UniProt P21397); type: functional
T3 sequence (P21397 whole entry): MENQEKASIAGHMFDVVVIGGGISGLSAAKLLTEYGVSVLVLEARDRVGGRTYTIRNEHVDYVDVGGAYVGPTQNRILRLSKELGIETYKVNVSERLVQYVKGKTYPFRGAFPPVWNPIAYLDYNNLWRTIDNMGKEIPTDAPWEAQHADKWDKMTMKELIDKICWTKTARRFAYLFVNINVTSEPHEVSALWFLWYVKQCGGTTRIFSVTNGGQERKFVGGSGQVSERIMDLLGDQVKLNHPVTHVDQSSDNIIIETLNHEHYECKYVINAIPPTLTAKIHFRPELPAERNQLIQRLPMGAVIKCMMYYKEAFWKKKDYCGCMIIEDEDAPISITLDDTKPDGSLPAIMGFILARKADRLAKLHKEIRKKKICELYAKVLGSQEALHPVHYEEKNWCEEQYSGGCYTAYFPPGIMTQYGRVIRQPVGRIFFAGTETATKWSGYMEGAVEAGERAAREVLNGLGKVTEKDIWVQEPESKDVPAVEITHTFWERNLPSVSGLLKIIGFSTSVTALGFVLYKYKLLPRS

Thromboxane A2 receptor = target: T4, Thromboxane A2 receptor (Homo sapiens, UniProt P21731)
T4 sequence (P21731 whole entry): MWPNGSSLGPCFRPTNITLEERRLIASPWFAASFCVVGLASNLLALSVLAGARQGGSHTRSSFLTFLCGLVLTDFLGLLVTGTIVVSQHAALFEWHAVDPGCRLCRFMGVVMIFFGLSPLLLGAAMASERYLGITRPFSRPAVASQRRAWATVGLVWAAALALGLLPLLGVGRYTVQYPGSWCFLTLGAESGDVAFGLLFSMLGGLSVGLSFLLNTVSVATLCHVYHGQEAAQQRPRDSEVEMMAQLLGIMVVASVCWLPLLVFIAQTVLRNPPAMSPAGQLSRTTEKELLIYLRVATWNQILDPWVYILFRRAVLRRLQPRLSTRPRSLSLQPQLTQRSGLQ

[6] = target: T5, Cholecystokinin receptor type A (Homo sapiens, UniProt P32238)
T5 sequence (P32238 whole entry): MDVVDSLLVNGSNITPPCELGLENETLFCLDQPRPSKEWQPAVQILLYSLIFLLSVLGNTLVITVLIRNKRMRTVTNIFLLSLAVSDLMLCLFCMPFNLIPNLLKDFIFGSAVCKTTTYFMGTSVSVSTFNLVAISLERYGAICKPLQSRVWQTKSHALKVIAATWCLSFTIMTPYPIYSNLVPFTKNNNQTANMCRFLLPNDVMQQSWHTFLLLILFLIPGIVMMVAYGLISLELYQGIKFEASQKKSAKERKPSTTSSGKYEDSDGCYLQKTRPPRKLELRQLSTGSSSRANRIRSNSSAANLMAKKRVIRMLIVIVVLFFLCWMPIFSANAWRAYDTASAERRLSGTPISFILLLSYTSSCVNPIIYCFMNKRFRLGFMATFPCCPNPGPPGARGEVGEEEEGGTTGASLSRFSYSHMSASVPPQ
Note: assay procedure not described here.

Sequence of Vasopressin V2 receptor (P30518 whole entry): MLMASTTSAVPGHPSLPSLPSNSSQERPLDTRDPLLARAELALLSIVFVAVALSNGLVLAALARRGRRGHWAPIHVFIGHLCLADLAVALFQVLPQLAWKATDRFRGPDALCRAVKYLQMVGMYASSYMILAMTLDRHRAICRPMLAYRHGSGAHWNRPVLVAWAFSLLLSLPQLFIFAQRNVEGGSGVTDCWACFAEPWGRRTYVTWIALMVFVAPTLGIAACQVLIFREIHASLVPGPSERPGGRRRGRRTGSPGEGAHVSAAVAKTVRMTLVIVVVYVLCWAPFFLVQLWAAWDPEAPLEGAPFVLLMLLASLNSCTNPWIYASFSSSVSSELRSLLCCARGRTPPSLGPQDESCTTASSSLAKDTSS

| SMILES | AC50 (Vasopressin V2 receptor) [µM] | AC50 [1] [µM] | AC50 [2] [µM] | AC50 [3] [µM] | AC50 [4] [µM] | AC50 (Histamine H1 receptor) [µM] | AC50 [5] [µM] | AC50 (Thromboxane A2 receptor) [µM] | AC50 [6] [µM] |
| --- | --- | --- | --- | --- | --- | --- | --- | --- | --- |
| N#Cc1ccccc1-c1cc(-c2ccccn2)cn(-c2ccccc2)c1=O | > 30 | > 30 | > 30 | > 30 | > 30 | > 30 | > 30 | > 30 | > 30 |
| N#C[C@@H]1CCCN1C(=O)CNC12CC3CC(CC(O)(C3)C1)C2 [VILDAGLIPTIN] | > 30 | > 30 | > 30 | > 30 | > 30 | > 30 | > 30 | > 30 | > 30 |
| COc1c(O[C@@H]2O[C@H](CO)[C@@H](O)[C@H](O)[C@H]2O)cc2c(c1OC)-c1ccc(SC)c(=O)cc1[C@@H](NC(C)=O)CC2 [THIOCOLCHICOSIDE] | > 30 | > 30 | > 30 | > 30 | > 30 | > 30 | > 30 | > 30 | > 30 |
| Clc1ccc(C(Cn2ccnc2)OCc2ccc(Sc3ccccc3)cc2)c(Cl)c1 (stereo not given) [FENTICONAZOLE] | > 30 | > 30 | > 30 | > 30 | 2.5 | > 30 | > 30 | > 30 | > 30 |
| CCC(C)(Oc1ccc(C2(c3ccc(OC(C)(CC)C(=O)O)cc3)CCCCC2)cc1)C(=O)O (stereo not given) [CLINOFIBRATE] | > 30 | > 30 | > 30 | > 30 | > 30 | > 30 | > 30 | > 30 | > 30 |
| O=C1Nc2ccc(Cl)cc2C(c2ccccc2)=NC1O (stereo not given) [OXAZEPAM] | > 30 | > 10 | > 30 | 0.03 | > 10 | > 10 | > 10 | > 30 | > 30 |
| CCN(CC)C(=O)C1CN2CCc3cc(OC)c(OC)cc3C2CC1OC(C)=O (stereo not given) [BENZQUINAMIDE] | > 30 | > 30 | > 30 | > 30 | > 30 | > 30 | > 30 | > 10 | > 30 |
| CCCCC[C@H](O)/C=C/[C@H]1[C@H](O)CC(=O)[C@@H]1C/C=C\CCCC(=O)O [DINOPROSTONE] | > 30 | > 30 | > 30 | > 30 | 22 | > 30 | > 30 | 3.5 | > 30 |
| CN(c1nccc(=O)[nH]1)C1CCN(c2nc3ccccc3n2Cc2ccc(F)cc2)CC1 [MIZOLASTINE] | > 30 | > 30 | > 30 | > 30 | > 30 | > 30 | > 30 | > 30 | > 30 |
| CCN(CC)CC(=O)Oc1ccc(NC(C)=O)cc1 [PROPACETAMOL] | > 30 | > 30 | > 30 | > 30 | 18 | > 30 | > 30 | > 30 | > 30 |
| NC(=O)CCC/N=C(\c1ccc(Cl)cc1)c1cc(F)ccc1O [PROGABIDE] | > 10 | > 10 | > 30 | > 10 | > 10 | > 10 | > 10 | > 10 | > 10 |
| CCCC(C)(COC(N)=O)COC(=O)NC(C)C (stereo not given) [CARISOPRODOL] | > 30 | > 10 | > 30 | > 10 | > 10 | > 10 | > 10 | > 30 | > 30 |
| C#C[C@]1(O)CC[C@H]2[C@@H]3CCC4=CC(=O)CCC4=C3C=C[C@@]21CC [GESTRINONE] | > 30 | > 30 | > 30 | 8.8 | 23 | > 30 | > 30 | > 30 | > 30 |
| CC(NCCc1ccc(O)cc1)C(O)c1ccc(O)cc1 (stereo not given) [RITODRINE] | > 30 | > 10 | 2 | > 30 | 14.4 | > 30 | > 30 | > 30 | > 30 |
| CC(=O)Nc1c(I)c(C(=O)N[C@H]2C(O)O[C@H](CO)[C@@H](O)[C@@H]2O)c(I)c(N(C)C(C)=O)c1I (stereo not given in full) [METRIZAMIDE] | > 10 | > 10 | > 30 | > 10 | > 10 | > 10 | > 10 | > 10 | > 10 |
